In patent US6855549B1, “Methods and compositions for increasing the infectivity of gene transfer vectors” (The University of Iowa Research Foundation, priority 1998, dated 2005):

System: differentiated human airway epithelia
Assay: Confocal (latex beads) and transmission electron microscopy of epithelial junctions after EGTA
Format: cell-based
Details: 1 hr
Experimental: Ten micromoles of CMFDA (5-chloromethylfluorescein diacetate; Molecular Probes, Eugene, Oreg.) were added to the basal medium overnight to label cells (Knecht and Shelden, 1995; Stewart and Deacon, 1995). 100 nm latex beads (1×10^9 particles, Sigma, St. Louis, Mo.) were mixed with 12 mM hypotonic EGTA solution at a 1:1 ratio. The suspension was applied to the apical surface of KGF-stimulated epithelia for 1 hr. The epithelia were then washed with PBS 4-5 times for 20 min and then fixed in 4% paraformaldehyde/PBS for 20 min. The cell filter membranes were removed, mounted on slides, and examined under a confocal microscope (MRC 1024, Bio-Rad).
Transmission electron microscopy was used to study cell morphology following treatment with a 6 mM EGTA in hypotonic buffer for 1 hr. Differentiated human airway epithelia were fixed in 2.5% glutaraldehyde (0.1 M sodium cacodylate buffer, pH 7.4) overnight at 4° C., and then post-fixed with 1% osmium tetroxide for 1 hr. Following serial alcohol dehydration, samples were embedded in Eponate 12 (Ted Pella, Inc., Redding, Calif.). Sectioning and post-staining were performed using routine methods (see “Electron Microscopy: Principles and Techniques for Biologists,” Jones and Bartlett Publishers, Sudbury, Mass., 1998). Samples were examined under a Hitachi H-7000 transmission electron microscope. […]

O=C(O)CN(CCOCCOCCN(CC(=O)O)CC(=O)O)CC(=O)O [EGTA]
width of intercellular gap (TEM) (6 mM EGTA in hypotonic buffer): ~500 nm | intercellular spaces and deposition of 100 nm beads (hypotonic 6 mM EGTA, apical): caused a widening of the intercellular spaces and facilitated deposition of beads in the paracellular space
